Here are results for 3 compounds from patent US20210060006A1, “COMPOSITIONS AND METHODS FOR TREATING GLIOBLASTOMA BY MODULATING A MGMT ENHANCER” (The Trustees of Columbia University in the City of New York, priority 2018, published 2021).

Structures are written as SMILES. Some results are limits rather than exact numbers.

The test system of data set [1] is MGMT. To be noted: SAHA in combination with TMZ; cited from earlier work.
For data set [2], the system named is SKMG3 parental cells and enhancer deletion clones. Description: Clonogenic assay of TMZ sensitivity. The class given is cell-based, human. To be noted: for IC50: Homo sapiens. Here is the method: Cell viability was determined using clonogenic assay.
FIG. 5F is a summary of TMZ IC50 in SKMG3 clones with or without O6BG pre-treatment.
Clonogenic assays were performed to assess the effect of disrupted enhancer on TMZ sensitivity. Briefly, SKMG3 parental cells and enhancer deletion clones were plated in 6 wells plates (250 cells/well), treated with graded concentration of TMZ in presence or absence of O6BG and were cultured for 2 weeks. Colonies were fixed and stained with crystal violet (0.005% (w/v) Crystal violet, 25% (v/v) Methanol). Colonies with >50 cells were manually counted, IC50 calculated by GraphPad Prism 7 using multiparametric nonlinear regression model.

Data set [3] relates to MGMT. To be noted: combination with TMZ compared to TMZ alone; cited from earlier work.

The IC50 is the concentration that gives 50% inhibition.

As to `O=C(CCCCCCC(=O)Nc1ccccc1)NO` [SAHA], in the data set with MGMT [1], the MGMT expression result was “promotes elevation of MGMT expression”.

Turning to `Cn1nnc2c(C(N)=O)ncn2c1=O` [TMZ, temozolomide], the IC50 in data set [2] (K-M enhancer deleted (3.3 kb) SKMG3 clones) was below 10 µM; in data set [2] (parental SKMG3 lines and wild type control clone), above 100 µM.

`Nc1nc(OCc2ccccc2)c2nc[nH]c2n1` [O6BG, O6-benzylguanine]: the “TMZ sensitizing effect of enhancer deletion” value in data set [2] (group pre-treated with 10 μM O6BG 1 h prior to temozolomide) is “not observed”. Besides, in the data set with MGMT [3], the clinical benefit entry is “no clinical benefit”, the hematologic toxicities entry is “enhanced hematologic toxicities” and the therapeutic window entry is “reduced therapeutic window”.
